Data: US4163799A, “Psychostimulant compounds” (Union Chimique Continentale U.C.C., priority 1975, dated 1979)
Where a name gives a salt, the structure may show the parent alone.

Experiments:
[1] = Observation of animals, mouse; type: in vivo, mouse (male, Swiss NMRI)
Experimental: (§1) All the experiments described below were carried out on male rats weighing between 170 and 220 g (Wistar AF strain) and male mice weighing between 18 and 23 g (Swiss NMRI strain), unless indicated to the contrary. All the experiments were conducted in a constant-temperature laboratory (22±1° C.). […] Unless indicated to the contrary 10 animals per batch were always used.

[2] = Observation of animals, rat; type: in vivo, rat (male, Wistar AF)
Experimental: as §1

[3] = Motor activity in the mouse (photoelectric cell actimeter); type: in vivo, mouse (male, Swiss NMRI)
Experimental: as §1
The motor activity was determined with the aid of photoelectric cell actimeters (Boissier and Simon, Arch. int. Pharmacodyn. 1965, 158, 212-221). Twelve animals per batch were always used as a minimum.

[4] = Motor activity in the rat (actimeter); type: in vivo, rat (male, 90-110 g)
Experimental: as §1
The motor activity was determined on male rats weighing between 90 and 110 g with the aid of the actimeter, the same instrument cited with regard to motor activity in the mouse.
The NaAHDH doses were given immediately before the actimeter was switched on.

Perforated board test = type: in vivo
Experimental: as §1
The technique and apparatus described by Boissier and Simon (Physiol. Behav. 1967, 2, 444-448) were used. In these experiments 15 animals per group were used (except for 30 for the controls and 30 for the 32 mg/kg dose).

[5] = Avoidance conditioning, two-compartment shuttle-box; type: in vivo, rat (male, Wistar AF); settings: 16 and 64 mg/kg orally, previously trained rats
Experimental: as §1
This avoidance conditioning in the rat placed in a two-compartment shuttle-box described by Boissier and Simon (Therapie 1968, 23, 1267-1276) was studied.

[6] = Conditioned-inhibition test (four-plate test); type: in vivo, mouse (male, Swiss NMRI); settings: 4, 8, 16, 32 and 64 mg/kg
Experimental: as §1
A simple conditioned-inhibition test was used, namely the four-plate test (Neuropharmacology, Aron et al, 1971, 10, 459-470).

[7] = Antireserpine activity test, rat; type: in vivo, rat (male, Wistar AF); settings: 8, 16, 32 mg/kg orally, reserpine 2.5 mg/kg IP 4 hours before
Experimental: as §1

[8] = Antireserpine activity test, mouse; type: in vivo, mouse (male, Swiss NMRI); settings: 8, 16, 32 mg/kg orally, reserpine 2.5 mg/kg IP 4 hours before
Experimental: as §1

[9] = Antioxotremorine activity test; type: in vivo, mouse (male, Swiss NMRI); settings: 8, 16, 32 mg/kg orally or ip; oxotremorine 0.5 mg/kg IP
Experimental: as §1
In mice which received doses of 8, 16, and 32 mg/kg of NaAHDH orally or intraperitoneally the effects of oxotremorine (0.5 mg/kg IP) were unchanged, in terms of hyperthermia, trembling, lacrimation, hypersalivation, and defecation.

[10] = Anticataleptic activity test (prochlorperazine); type: in vivo, rat (male, Wistar AF); settings: 8 or 32 mg/kg ip or orally; prochlorperazine 8 mg/kg ip; homolateral paws, buddha, rocking plate tests
Experimental: as §1

[11] = Stereotypy test with amphetamine; type: in vivo, rat (male, Wistar AF); settings: 32 or 64 mg/kg orally 60 minutes before amphetamine 2 mg/kg IP
Experimental: as §1

monoaminoxidase = experiment: Inhibitory effect of monoaminoxidase (tryptamine test); type: in vivo, rat (male, Wistar AF); settings: 16 and 64 mg/kg orally; tryptamine 3 mg/kg IV
Experimental: as §1

[12] = Overall activity and wakefulness profile (conclusion of the study); type: in vivo, rat and mouse
[13] = Antihypnotic effect / pentobarbital antagonism (conclusion); type: in vivo
[14] = Potentialization of apomorphine; type: in vivo; settings: compared with caffeine; no method described
[15] = doses less than toxic, beginning with 4 mg/kg orally or ip
[16] = doses less than toxic, from 4 mg/kg orally or ip
[17] = doses very close to the lethal doses
[18] = only at doses very close to the lethal doses
[19] = 64 mg/kg IP, ** significant at 0.005
[20] = 8 mg/kg orally 60 min before test
[21] = 16 mg/kg orally 60 min before test
[22] = 32 mg/kg orally 60 min before test
[23] = 64 mg/kg orally 60 min before test

CC(O)CC(c1ccccc1)C(C(=O)O)c1ccccc1 (stereo not drawn) [NaAHDH, Sodium Salt of 5-Hydroxy-2,3-Diphenyl-Hexanoic Acid]
excitation, reactivity to touch and sound stimuli [1, 15]: slight excitation was observed with enhanced reactivity to touch and sound stimuli | diameter of the pupil [1, 16]: no change was observed in the diameter of the pupil | hyperthermia [1, 16]: slight hyperthermia | motor coordination, abnormal or stereotyped movements [1, 16]: not accompanied by lack of motor coordination or abnormal or stereotyped movements | hyperthermia [1, 17]: about 2 °C | toxic signs [1, 18]: trembling, hyperreactivity to very intense stimuli, interaggressivity, and convulsive phenomena extending to the rear paws | sexual behavior [2]: increase of sexual behavior | excitation, reactivity to touch and sound stimuli [2, 15]: slight excitation was observed with enhanced reactivity to touch and sound stimuli | diameter of the pupil [2, 16]: no change was observed in the diameter of the pupil | hyperthermia [2, 16]: slight hyperthermia | motor coordination, abnormal or stereotyped movements [2, 16]: not accompanied by lack of motor coordination or abnormal or stereotyped movements | hyperthermia [2, 17]: about 2 °C | toxic signs [2, 18]: trembling, hyperreactivity to very intense stimuli, interaggressivity, and convulsive phenomena extending to the rear paws | number of beams interrupted, 30 + 5 min ([3]; 16 mg/kg IP): 44 | number of beams interrupted, 30 + 10 min ([3]; 16 mg/kg IP): 90 | number of beams interrupted, 30 + 15 min ([3]; 16 mg/kg IP): 133 | number of beams interrupted, 30 + 20 min ([3]; 16 mg/kg IP): 163 | number of beams interrupted, 30 + 25 min ([3]; 16 mg/kg IP): 195 | number of beams interrupted, 30 + 30 min ([3]; 16 mg/kg IP, * significant at 0.05): 214 ± 28 | number of beams interrupted, 30 min ([3]; 16 mg/kg IP): 376 ± 31 | number of beams interrupted, 30 + 5 min ([3]; 32 mg/kg IP): 65 | number of beams interrupted, 30 + 10 min ([3]; 32 mg/kg IP): 118 | number of beams interrupted, 30 + 15 min ([3]; 32 mg/kg IP): 183 | number of beams interrupted, 30 + 20 min ([3]; 32 mg/kg IP): 242 | number of beams interrupted, 30 + 25 min ([3]; 32 mg/kg IP): 285 | number of beams interrupted, 30 + 30 min ([3]; 32 mg/kg IP, test t 2,395): 325 ± 26 | number of beams interrupted, 30 min ([3]; 32 mg/kg IP): 450 ± 39 | number of beams interrupted, 30 + 5 min ([3]; 64 mg/kg IP): 90 | number of beams interrupted, 30 + 10 min ([3]; 64 mg/kg IP): 195 | number of beams interrupted, 30 + 15 min ([3]; 64 mg/kg IP): 297 | number of beams interrupted, 30 + 20 min ([3]; 64 mg/kg IP): 396 | number of beams interrupted, 30 + 25 min ([3]; 64 mg/kg IP): 429 | number of beams interrupted, 30 + 30 min [3, 19]: 558 ± 56 | number of beams interrupted, 30 min [3, 19]: 580 ± 47 | motor activity ([3]; 32 and 64 mg/kg ip, significant for the first 30 minutes, regular and constant up to 60th minute): increase in motor activity | number of beams interrupted, 30 + 5 min ([4]; 16 mg/kg ip): 39 | number of beams interrupted, 30 + 10 min ([4]; 16 mg/kg ip): 67 | number of beams interrupted, 30 + 15 min ([4]; 16 mg/kg ip): 104 | number of beams interrupted, 30 + 20 min ([4]; 16 mg/kg ip): 133 | number of beams interrupted, 30 + 25 min ([4]; 16 mg/kg ip): 156 | number of beams interrupted, 30 + 30 min ([4]; 16 mg/kg ip): 182 ± 39 | number of beams interrupted, 30 min ([4]; 16 mg/kg ip): 461 ± 32 | number of beams interrupted, 30 + 5 min ([4]; 32 mg/kg ip): 88 | number of beams interrupted, 30 + 10 min ([4]; 32 mg/kg ip): 191 | number of beams interrupted, 30 + 15 min ([4]; 32 mg/kg ip): 274 | number of beams interrupted, 30 + 20 min ([4]; 32 mg/kg ip): 372 | number of beams interrupted, 30 + 25 min ([4]; 32 mg/kg ip): 452 | number of beams interrupted, 30 + 30 min ([4]; 32 mg/kg ip): 531 ± 84 | number of beams interrupted, 30 min ([4]; 32 mg/kg ip): 631 ± 49 | number of beams interrupted, 30 + 5 min ([4]; 32 mg/kg vo (orally)): 31 | number of beams interrupted, 30 + 10 min ([4]; 32 mg/kg vo (orally)): 69 | number of beams interrupted, 30 + 15 min ([4]; 32 mg/kg vo (orally)): 100 | number of beams interrupted, 30 + 20 min ([4]; 32 mg/kg vo (orally)): 118 | number of beams interrupted, 30 + 25 min ([4]; 32 mg/kg vo (orally)): 131 | number of beams interrupted, 30 + 30 min ([4]; 32 mg/kg vo (orally)): 164 ± 58 | number of beams interrupted, 30 min ([4]; 32 mg/kg vo (orally)): 433 ± 43 | number of beams interrupted, 30 + 5 min ([4]; 64 mg/kg vo (orally)): 58 | number of beams interrupted, 30 + 10 min ([4]; 64 mg/kg vo (orally)): 124 | number of beams interrupted, 30 + 15 min ([4]; 64 mg/kg vo (orally)): 197 | number of beams interrupted, 30 + 20 min ([4]; 64 mg/kg vo (orally)): 265 | number of beams interrupted, 30 + 25 min ([4]; 64 mg/kg vo (orally)): 325 | number of beams interrupted, 30 + 30 min ([4]; 64 mg/kg vo (orally)): 396 ± 62 | number of beams interrupted, 30 min ([4]; 64 mg/kg vo (orally)): 517 ± 25 | motor activity ([4]; 16 and 32 mg/kg intraperitoneally): increase in motor activity | motor activity ([4]; 32 and 64 mg/kg orally): increase in motor activity | holes explored in 5 min (Perforated board test; [20]): 101 percentage of controls | movements made in 5 min (Perforated board test; [20]): 102 percentage of controls | holes explored in 5 min (Perforated board test; [21]): 121 percentage of controls | movements made in 5 min (Perforated board test; [21]): 116 percentage of controls | holes explored in 5 min (Perforated board test; [22]): 140 percentage of controls | movements made in 5 min (Perforated board test; [22]): 159 percentage of controls | holes explored in 5 min (Perforated board test; [23]): 143 percentage of controls | movements made in 5 min (Perforated board test; [23]): 150 percentage of controls | movements (Perforated board test; orally): clear increase in movements | holes explored (Perforated board test; orally, significant from 16 mg/kg upward): large increase in the holes explored | minimal effective dose (Perforated board test; po, orally, read-out: dose from which increase in holes explored is significant): ≥ 16 mg/kg | change in avoidance conditioning [5]: no change in the conditioning | animals' performance in four-plate test [6]: slight in increase in the animals' performance | modification of conditioned inhibition [6]: no modification of conditioned inhibition | modification of hyperthermia or drooping eyelid induced by reserpine [7]: no modification of hyperthermia or drooping eyelid induced by reserpine | modification of hyperthermia or drooping eyelid induced by reserpine [8]: no modification of hyperthermia or drooping eyelid induced by reserpine | effects of oxotremorine (hyperthermia, trembling, lacrimation, hypersalivation, defecation) [9]: unchanged | modification of cataleptic condition [10]: no modification to the cataleptic condition | modification of amphetamine stereotyped movements [11]: no modification in stereotyped movements | potentialization of effects of infra-convulsant dose of tryptamine (monoaminoxidase): no potentialization of the effects of an infra-convulsant dose of tryptamine | signs of sympathetic excitation ([12]; by contrast to nooanaleptics): no signs of sympathetic excitation | persistence of increase in activity and wakefulness ([12]; orally, after administration): about 2 hours | pentobarbital antagonism ([13]; at clearly stimulating doses): no pentobarbital antagonism | antihypnotic effect ([13]; compared with caffeine): no antihypnotic effect | potentialization of apomorphine [14]: does not potentialize apomorphine
